Source: patent US20090062255A1, “TUMOR-TARGETING EVALUATION METHODOLOGY AND COMPOUNDS RELATED THERETO” (THALLION PHARMACEUTICALS INC., priority 2007, published 2009)
Where “and” joins values, the source holds several entries; their conditions need not be identical. Equal entries are not always repeated. Where two headings read alike, the source gives them in different places.

What was measured:
[1] = test system: HT-29, SF268, MDA-MB-231 and PC-3 cell lines; experiment: In vitro cytotoxic activity against four cell lines (overall statement); format: cell-based; settings: second test
Text: Procedures used for each series of tests are described below.
Compound 2 has an unexpected increase in cytotoxic activity compared to parent Compound 1. […] Cytotoxic activity (GI50) of Compound 2 for the other three strains was outside the expected range of concentrations used in the first tests.

[2] = test system: 9L gliosarcoma cell line; experiment: MTT cytotoxicity, 9L cell line; format: cell-based; settings: 96 h, Rat
Experimental: (§1) The cytotoxic activity of Compound 1 was further evaluated using a panel of brain tumor cell lines. This study was performed in collaboration with INSERM (Grenoble, France). Tumor cells (5,000 to 10,000 cells per well depending on their doubling time) were plated in 96-well flat-bottom plates and incubated for 24 hours before treatment. Tumor cells were then incubated for 96 hours with seven different concentrations of Compound 1: […], 0.01, and 0.001 μM. The in vitro cytotoxic activity was determined by a standard MTT assay.

[3] = test system: GHD astrocytoma cell line; experiment: MTT cytotoxicity, GHD cell line; format: cell-based; settings: 96 h, Human
Experimental: as §1

[4] = test system: GHA oligodendroglioma cell line; experiment: MTT cytotoxicity, GHA cell line; format: cell-based; settings: 96 h, Human
Experimental: as §1

[5] = Plasma and tissue drug levels after IV bolus and CIV infusion, rat C6 orthotopic brain tumors; format: in vivo
Experimental: 14 days post-tumor implantation, rats received a bolus IV administration of compound 1 (30 mg/kg; 1.5 mL at 0.5 mL per min) followed by continuous IV infusion (5 mg/kg/hour; 0.7 mL/hour) over 3 hours. The animals were then sacrificed by anesthetic overdose and blood was collected by heart puncture. Brain, tumor and liver were snap-frozen in liquid nitrogen and stored at −80° C. until analysis. Blood samples was collected into K2-EDTA tubes and kept on ice for a maximum of 30 min. Samples were then centrifuged at 4° C. and 1500 g (RCF). A volume of 225 μL of rat plasma was added to clean tubes containing 25 μL of aqueous 4% w/v L-ascorbic acid and samples were mixed and stored at −80° C. until analysis.
Binding potential (B.P.) data and Compound 1 plasma levels and tissue levels for each of the seven rats included in the study are presented in Table 23 below and summarized in FIG. 7.

[6] = biological target: T1, human c-RAF (Homo sapiens, UniProt P04049); experiment: Upstate Kinase Profiler, c-RAF; format: biochemical
T1 construct: purchased Upstate (Kinase Profiler Service; Dundee, UK)
T1 sequence (P04049 whole entry): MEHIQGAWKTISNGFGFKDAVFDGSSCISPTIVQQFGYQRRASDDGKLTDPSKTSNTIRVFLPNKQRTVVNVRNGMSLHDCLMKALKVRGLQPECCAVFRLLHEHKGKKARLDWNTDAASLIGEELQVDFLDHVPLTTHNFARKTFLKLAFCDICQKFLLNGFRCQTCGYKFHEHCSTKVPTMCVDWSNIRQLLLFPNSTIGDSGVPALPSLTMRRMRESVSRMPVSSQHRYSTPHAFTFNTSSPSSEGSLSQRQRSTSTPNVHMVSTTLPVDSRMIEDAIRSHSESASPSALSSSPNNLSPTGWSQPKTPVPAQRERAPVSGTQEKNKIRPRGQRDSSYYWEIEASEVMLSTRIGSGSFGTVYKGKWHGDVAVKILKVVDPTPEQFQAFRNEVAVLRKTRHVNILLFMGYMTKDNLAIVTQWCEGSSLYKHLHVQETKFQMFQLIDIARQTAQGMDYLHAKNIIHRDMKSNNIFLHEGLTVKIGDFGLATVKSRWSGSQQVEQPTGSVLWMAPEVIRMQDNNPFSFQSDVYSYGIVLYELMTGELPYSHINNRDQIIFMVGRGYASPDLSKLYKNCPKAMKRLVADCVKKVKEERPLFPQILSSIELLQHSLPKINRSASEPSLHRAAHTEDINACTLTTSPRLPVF
Experimental: (§2) Unlike current Ras signalling pathway inhibitors, ECO-4601 is not a direct kinase inhibitor. This was documented by evaluating the effect of ECO-4601 on human EGFR, c-RAF, MEK1, MAPK1 (ERK1) and MAPK2 (ERK2) kinase-activity (Upstate Kinase Profiler™ Service; Dundee, UK). ECO-4601 was tested at 0.5 μM and 5 μM in a final volume of 25 μL according to standard protocols developed by Upstate Ltd. Briefly, purified recombinant human enzymes were incubated with 25 mM Tris pH 7.5 containing EGTA, a specific substrate and γ-^32P-ATP. The reaction was initiated with MgATP mix and incubated for 40 minutes at RT. The reaction was stopped by the addition of 5 μL of a 3% phosphoric acid solution; aliquots were spotted on filters and counted. Detailed procedures are available on the Millipore Upstate website.

[7] = biological target: T2, human MEK1 (Homo sapiens, UniProt Q02750); experiment: Upstate Kinase Profiler, MEK1; format: biochemical
T2 construct: purchased Upstate (Kinase Profiler Service; Dundee, UK)
T2 sequence (Q02750 whole entry): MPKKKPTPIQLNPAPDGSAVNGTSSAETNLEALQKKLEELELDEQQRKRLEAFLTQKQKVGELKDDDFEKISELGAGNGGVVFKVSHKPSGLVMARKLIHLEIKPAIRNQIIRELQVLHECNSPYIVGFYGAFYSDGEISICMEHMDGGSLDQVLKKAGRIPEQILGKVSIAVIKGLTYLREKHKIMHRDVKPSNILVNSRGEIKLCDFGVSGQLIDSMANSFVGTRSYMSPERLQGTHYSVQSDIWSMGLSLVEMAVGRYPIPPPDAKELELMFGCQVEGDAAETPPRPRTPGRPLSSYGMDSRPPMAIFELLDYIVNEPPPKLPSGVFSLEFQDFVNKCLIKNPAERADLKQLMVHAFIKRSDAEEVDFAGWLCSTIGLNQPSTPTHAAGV
Experimental: as §2

[8] = biological target: T3, human MAPK1 (ERK1) (Homo sapiens, UniProt P27361); experiment: Upstate Kinase Profiler, MAPK1 (ERK1); format: biochemical
T3 construct: purchased Upstate (Kinase Profiler Service; Dundee, UK)
T3 sequence (P27361 whole entry): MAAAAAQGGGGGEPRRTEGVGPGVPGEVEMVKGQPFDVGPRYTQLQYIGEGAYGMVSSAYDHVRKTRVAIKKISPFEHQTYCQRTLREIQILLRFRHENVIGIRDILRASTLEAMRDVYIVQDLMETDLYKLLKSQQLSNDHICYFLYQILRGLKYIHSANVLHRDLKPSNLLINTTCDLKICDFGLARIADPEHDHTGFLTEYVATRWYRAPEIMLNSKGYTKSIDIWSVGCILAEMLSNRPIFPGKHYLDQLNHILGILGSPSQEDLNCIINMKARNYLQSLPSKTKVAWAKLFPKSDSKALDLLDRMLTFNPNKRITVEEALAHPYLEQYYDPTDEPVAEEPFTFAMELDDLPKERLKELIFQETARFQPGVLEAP
Experimental: as §2

[9] = biological target: T4, human MAPK2 (ERK2) (Homo sapiens, UniProt P28482); experiment: Upstate Kinase Profiler, MAPK2 (ERK2); format: biochemical
T4 construct: purchased Upstate (Kinase Profiler Service; Dundee, UK)
T4 sequence (P28482 whole entry): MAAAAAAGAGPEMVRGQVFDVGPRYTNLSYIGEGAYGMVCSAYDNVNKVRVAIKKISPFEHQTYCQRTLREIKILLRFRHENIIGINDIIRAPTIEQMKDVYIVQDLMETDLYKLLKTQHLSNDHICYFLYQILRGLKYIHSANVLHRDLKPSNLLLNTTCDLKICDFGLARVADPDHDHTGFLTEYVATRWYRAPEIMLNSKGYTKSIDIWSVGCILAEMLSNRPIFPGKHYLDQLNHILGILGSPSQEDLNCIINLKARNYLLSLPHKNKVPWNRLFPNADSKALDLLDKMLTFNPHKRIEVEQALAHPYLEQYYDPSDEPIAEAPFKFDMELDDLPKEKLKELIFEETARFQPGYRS
Experimental: as §2

[10] = test system: Raf-1; experiment: Raf-1 protein levels in MiaPaCa-2 tumors (Western blot); format: in vivo, mice; settings: 20 mg/kg SC daily for 5 days
Experimental: In this model, it was verified if there was an association between antitumor activity and inhibition of the Ras-MAPK pathway. In parallel to the antitumor study described above, two additional groups of 5 mice were treated SC with vehicle or 20 mg/kg ECO-4601, administered daily for 5 days. Animals from these two groups were sacrificed two hours on day 5 of treatment. As shown by quantification of Western blot analysis (FIG. 13), Raf-1 levels were reduced in MiaPaCa-2 tumors obtained from animals treated with ECO-4601 compared with the vehicle-treated animals.

[11] = test system: human breast cell line MCF-7; experiment: Growth inhibitory MTT assay, MCF-7; format: cell-based; settings: 72 hours, treated over control
Experimental: Growth inhibitory activity of ECO-4601 (Compound 1) and other dibenzodiazepinone analogs was evaluated on a panel of 4 human tumor cell lines: the human uterine sarcoma MES-SA and its doxorubicin-resistant P-glycoprotein over-expressing variant, MES-SA/DX5 as well as non-aggressive and highly aggressive human breast cell lines, MCF-7 and MDA-MB-231, respectively. These four cell lines were obtained from the American Type Culture Collection (Manassas, Va.) and cultured in RPMI plus 10% fetal bovine serum (FBS) and maintained at 37° C. with 5% CO2.
Exponentially growing cells (5,000 cells per well time; cell number determined with a hemocytometer) were seeded in 96-well flat-bottom plates and allowed to grow overnight. Cells were then incubated for 72 hours with three different concentrations of ECO-4601 or analogs: 30,10, and 3 μM. The in vitro growth inhibitory activity was determined by a commercial MTT assay. All measurements were done in quadruplicate and each experiment was performed 2-3 times. The lower the value, the more cytotoxic is the compound.

[12] = test system: genes involved in steroid biosynthesis, cholesterol transport/metabolism, signal transduction and apoptosis; experiment: Gene expression in animals treated with Compound 1; settings: in vivo
[13] = individual rats, IV bolus 30 mg/kg then CIV 5 mg/kg/hour over 3 hours, listed as ECO-4601

**Q.** With `CC(C)=CCC/C(C)=C/CC/C(C)=C/CN1C(=O)c2cccc(O)c2N(C)c2c(O)cc(O)cc21` [Compound 2, 10-farnesyl-4,6,8-trihydroxy-5-methyl-5,10-dihydro-dibenzo[b,e][1,4]diazepin-11-one] as the compound, how does the “increase in potency compared to Compound 1” value [1] read?
**A.** 100 fold

**Q.** What does the source list for `CC(C)=CCC/C(C)=C/CC/C(C)=C/CN1C(=O)c2cccc(O)c2Nc2c(O)cc(O)cc21` [Compound 1, 10-farnesyl-4,6,8-trihydroxy-5,10-dihydrodibenzo[b,e][1,4]diazepin-11-one]?
**A.** IC50 [2]: 8.3 ± 3.8 µM; IC50 [3]: 6.5 ± 2.9 µM; IC50 [4]: 1.6 ± 0.7 µM; tumor compared to liver ([5]; FIG. 7): 7 fold; Brain Drug Level [5, 13]: 527 ng/g and 692 ng/g and 823 ng/g and 1265 ng/g and 941 ng/g and 503 ng/g and 596 ng/g; Liver Drug Level [5, 13]: 11.2 µg/g and 6.91 µg/g and 53.1 µg/g and 61.0 µg/g and 14.2 µg/g and 3.31 µg/g and 2.29 µg/g; Plasma Drug Level [5, 13]: 16000 ng/mL and 12000 ng/mL and 22000 ng/mL and 32000 ng/mL and 11500 ng/mL and 4200 ng/mL and 4100 ng/mL; Tumor Drug Level [5, 13]: 234 µg/g and 8.46 µg/g and 182 µg/g and 273 µg/g and 242 µg/g and 8.98 µg/g and 119 µg/g; concentration at 3 h ([5]; rat, liver, intravenous, FIG. 7, read-out: liver level (mean)): 24800 ng/g; concentration at 3 h ([5]; rat, plasma, intravenous, FIG. 7, read-out: plasma level (mean)): 16200 ng/g; Kp at 3 h ([5]; rat, tumor / plasma, intravenous, FIG. 7, read-out: tumor compared to plasma): 11; concentration at 3 h ([5]; rat, tumor, intravenous, FIG. 7, read-out: accumulation in the tumor (mean level)): 176000 ng/mL; direct inhibition of c-Raf kinase activity (in words) ([6]; 0.5 μM and 5 μM): does not directly inhibit; activity at 0.5 µM ([6]; c-Raf, 0.5 μM, % of enzyme activity over positive control, read-out: Kinase Activity (%) ± SD): 114 ± 12%; activity at 5 µM ([6]; c-Raf, 5 μM, % of enzyme activity over positive control, read-out: Kinase Activity (%) ± SD): 94 ± 2%; direct inhibition of MEK1 kinase activity (in words) ([7]; 0.5 μM and 5 μM): does not directly inhibit; activity at 0.5 µM ([7]; MEK1, 0.5 μM, % of enzyme activity over positive control, read-out: Kinase Activity (%) ± SD): 106 ± 2%; activity at 5 µM ([7]; MEK1, 5 μM, % of enzyme activity over positive control, read-out: Kinase Activity (%) ± SD): 98 ± 1%; direct inhibition of ERK1 kinase activity (in words) ([8]; 0.5 μM and 5 μM): does not directly inhibit; activity at 0.5 µM ([8]; MAPK1 (ERK1), 0.5 μM, % of enzyme activity over positive control, read-out: Kinase Activity (%) ± SD): 97 ± 2%; activity at 5 µM ([8]; MAPK1 (ERK1), 5 μM, % of enzyme activity over positive control, read-out: Kinase Activity (%) ± SD): 73 ± 3%; direct inhibition of ERK2 kinase activity (in words) ([9]; 0.5 μM and 5 μM): does not directly inhibit; activity at 0.5 µM ([9]; MAPK2 (ERK2), 0.5 μM, % of enzyme activity over positive control, read-out: Kinase Activity (%) ± SD): 116 ± 1%; activity at 5 µM ([9]; MAPK2 (ERK2), 5 μM, % of enzyme activity over positive control, read-out: Kinase Activity (%) ± SD): 110 ± 1%; Raf-1 levels in MiaPaCa-2 tumors versus vehicle-treated animals [10]: reduced; % T/C at 10 μM [11]: 44%; expression of several genes in treated animals [12]: increased expression
